Data taken from patent US7462598B2, “Antimicrobial theta defensins, analogs thereof, and methods of use” (priority 2002, dated 2008).
Bridge positions count the residues as written; N and C are the ends. Peptide text beside a SMILES is read from it.

What was measured:
S. aureus 502a [1] = assay: Cell-suspension microbicidal assay (MMC); assay type: cell-based, Staphylococcus aureus; conditions: lowest concentration that reduced cell viability by 99.9%; 10 mM PIPES, 5 mM glucose, pH 7.4; 2 h 37° C.
Experimental: (§1) To test microbicidal activities, the activities of each peptide against S. aureus 502a, E. coli ML35, and C. albicans 16820 were assessed essentially as described in Example I with modifications to allow for simultaneous analysis of all twenty peptides. Briefly, two-fold serial dilutions of each peptide (in 0.01% acetic acid 0.062-8.0 μg/ml final concentrations) were mixed with 10 mM PIPES, pH 7.4, containing 5 mM glucose in sterile polystyrene 96-well plates (Corning, N.Y.). Aliquots of log-phase bacteria or yeast were added to a 2×10^6 CFU/ml final density as determined by A620. After 2 h incubation at 37° C., 15 μl of the incubation mixture was removed and serially diluted ten-fold from 1:10 to 1:10^6 in trypticase soy broth (bacteria) or Sabaraud dextrose broth (C. albicans). The diluted cell suspensions were grown 24-48 h at 37° C. until cell pellets were visible. Microbicidal activity was determined as absence of growth and was correlated to CFU/ml in control experiments where activity was determined in parallel by colony counting (see Example I). Absence of growth at the 1:10^3 dilution is equivalent to a 3-log reduction in microbial viability.
(§2) The microbicidal activities of each peptide against E. coli ML35, S. aureus 502a, and C. albicans 16820 were determined with cell-suspension microbicidal assays in 96-well plates (see Example II). Briefly, log-phase cells (2×10^6 CFU/ml final) were incubated with increasing concentrations of peptides (0-8 μg/ml final) in 50 μl of 10 mM PIPES, 5 mM glucose, pH 7.4, for 2 h at 37° C. Incubation mixtures were diluted 1:10 to 1:10^6 with trypticase-soy broth (bacteria) or Sabaraud dextrose broth (fungi) and incubated at 37° C. for 24-48 h until cell pellets were visible. Microbicidal activities (confirmed in control experiments as described in Example II) were determined as the absence of a cell pellet in the various dilutions. Peptide concentrations that caused ≧99.9% killing (absence of a cell pellet at 1:10^3 dilution) were taken as the minimum microbicidal concentrations (MMC).

S. aureus 502a [2] = assay type: cell-based, Staphylococcus aureus; conditions: 10% normal human serum; FIG. 7
Experimental: Dose-dependent staphylocidal activity of each peptide was determined in assays containing 10% normal human serum. Percentages of killing are relative to activities of peptide-containing incubations in which serum was omitted.
To determine the effects of serum, salt, calcium chloride and magnesium chloride on microbicidal activities, peptide activities were determined in assays containing varying ionic strength, divalent cations, and serum. The effect of serum on staphylocidal activity of each peptide was determined by incubating 1×10^6 CFU/ml of S. aureus 502a with increasing peptide concentrations (0.5-4 μg/ml) in 10 mM PIPES, pH 7.4, containing 10% normal human serum for 2 h at 37° C. The effect of sodium chloride on staphylocidal activities was assessed with 5 μg/ml of each peptide in 10 mM PIPES, pH 7.4, containing varying concentrations of sodium chloride (0-160 mM). Effects of divalent cations, CaCl2, or MgCl2 (0-5.6 mM) were assessed in microbicidal assays against E. coli ML35. Bactericidal activities were determined by colony counting (see Example II), and microbicidal potencies were expressed as percent killing as follows:
[formula] where A=surviving bacteria (CFU/ml) after initial incubation with each peptide in buffer containing serum, salt, or divalent cations and Ao=bacterial CFU/ml in the “no-peptide” controls.

E. coli ML35 [3] = assay: Membrane permeabilization assay (ONPG hydrolysis); assay type: cell-based, Escherichia coli; conditions: rates at 1 μg/ml concentration of each peptide
Experimental: For the membrane permeabilization assay, the permeabilization of bacterial cytoplasmic membranes was determined by measuring hydrolysis of o-nitrophenyl-β-D-galactcpyranoside (ONPG) in E. coli ML35 (Sitaram et al., FEBS Lett. 303:265-268 (1992); Lehrer et al.,. J. Immunol. Methods 108:153-158 (1988)). Peptides dissolved in 5 μl of 0.01% acetic acid were two-fold serially diluted with 10 mM PIPES, pH 7.4, containing 3 mM ONPG, to final peptide concentrations of 0-8.0 μg/ml. Log-phase bacteria, prepared in PIPES buffer as described for the microbicidal assay (see Example I), were added to 1×10^6 CFU/ml final density in a final volume of 90 μl. ONPG hydrolysis was measured at 405 nm for 60 min using a SpectraMAX 190 plate reader and SOFTmaxPRO 3.1 (Molecular Devices Corp., CA). […]

C. albicans 16820 = assay: Cell-suspension microbicidal assay (MMC); assay type: cell-based, Candida albicans; conditions: lowest concentration that reduced cell viability by 99.9%; 10 mM PIPES, 5 mM glucose, pH 7.4; 2 h 37° C.
Experimental: as §1, §2

[4] = system: S. aureus 502a, E. coli ML35, and C. albicans 16820; assay: Cell-suspension microbicidal assay, statements across the test organisms (lowest MMC, overall ranges); assay type: cell-based; conditions: peptide concentration that kill 99.9% of either S. aureus, E. coli, or C. albicans; lowest MMC value
Experimental: as §1, §2
(§3) A selectivity index (SI=H/M) was calculated as a ratio of a peptide concentration (μg/ml) that causes 3% hemolysis (H) obtained from a dose-dependent hemolysis plot over 0.3 to 3 μg/ml of each peptide in PBS and the lowest MMC value (M) for any of the three test microorganisms (see Example II; Table 2).

E. coli ML35 [5] = assay: Cell-suspension microbicidal assay (MMC); assay type: cell-based, Escherichia coli; conditions: lowest concentration that reduced cell viability by 99.9%; 10 mM PIPES, 5 mM glucose, pH 7.4; 2 h 37° C.
Experimental: as §1, §2

white blood cells = assay: Cytokine-antibody array of supernatants of white blood cells (ex vivo LPS model); assay type: cell-based; conditions: 18 h, relative to control supernatants
Experimental: The anti-inflammatory properties of RTD-1 were evaluated by determining the relative levels of cytokines produced by stimulated white blood cells. Blood was obtained from healthy donors in accordance with institutional guidelines. Serum was prepared from the same donor following coagulation and high-speed centrifugation (12,000-15,000 ×g). White blood cells, (WBC) were prepared from EDTA anti-coagulated blood using an established protocol. WBC were suspended in RPMI 1640 (Gibco; Invitrogen, Carlsbad Calif.) containing 10% FBS and 1% autologous serum. Aliquots containing 2×10^6 cells were added to each well of a sterile 12-well plate, and cells were allowed to incubate for 18 h at 37° C. in a humidified incubator with 5% carbon dioxide. […] Cell-free supernatants were collected by centrifugation at 12,000×g and incubated with cytokine-antibody arrays per the manufacturer's protocol (RayBiotech; Norcross Ga.). The cytokines on each array were visualized with a chemi-luminescent kit (Pierce; Rockford Ill.) and enumerated by spot density analysis with ChemiImager 5.5 (Alpha Innotech; San Leandro Calif.).

human erythrocytes = assay: Hemolysis assay; assay type: cell-based; conditions: peptide concentration that causes 3% hemolysis, calculated from dose-dependent hemolysis plot over 0.3-3 μg/ml in PBS
Experimental: For the hemolysis assay, the hemolytic activity of each peptide was determined by the method of Tam et al. (Tam et al., Eur. J. Biochem. 267:3289-3300 (2000)). Blood was obtained from a healthy donor in accordance to a protocol approved by the Institutional Review Board. Normal human serum was prepared from the same individual and stored at −20° C. Red blood cells (RBC) were prepared from blood collected in EDTA. RBC were harvested at 234×g for 10 min, 22° C., washed four times with 10 mM sodium phosphate, 150 mM NaCl, pH 7.4 (PBS), containing 4 mM EDTA and resuspended in PBS without EDTA. Peptides dissolved in 10 μl 0.01% HOAc were diluted with PBS to final concentrations of 0.3-100 μg/ml. RBC were added to a 2% final density in 100 μl. Incubation mixtures were also prepared with 10% serum. After 1 h incubation at 37° C., the cell suspensions were centrifuged at 234×g for 10 min, 22° C. Fifty-μl samples of the supernatants were removed, and the absorbance at 405 nm (A) was measured. Hemolytic activity of each peptide was calculated relative to lysis by 1% NP-40 using the following formula:
as §3

[6] = LPS (100 ng/ml) + RTD-1 (100 ng/ml)

In the case of `CC(C)C[C@H](NC(=O)[C@H](CCCNC(=N)N)NC(=O)CNC(=O)CNC(=O)[C@@H](N)CCCNC(=N)N)C(=O)N[C@H]1CSSC[C@@H](C(=O)N[C@H](C(=O)NCC(=O)N[C@@H](CCCNC(=N)N)C(N)=O)C(C)C)NC(=O)[C@H](C(C)C)NC(=O)[C@@H]2CSSC[C@H](NC(=O)[C@H](Cc3ccc(O)cc3)NC1=O)C(=O)N[C@@H](CCCNC(=N)N)C(=O)N[C@@H](CCCNC(=N)N)C(=O)N[C@@H](CCCNC(=N)N)C(=O)N[C@@H](Cc1ccccc1)C(=O)N2` [PG-1, reference compound], the “MMC, S. aureus” value (S. aureus 502a [1]) is reported as 0.4 µg/mL, the “staphylocidal activity in assay containing serum (in words)” value (S. aureus 502a [2]) is reported as “unaffected” and the ONPG hydrolysis (E. coli ML35 [3]) is reported as 11.3 (A405/sec) · 10^−5. The “MMC, C. albicans” value (C. albicans 16820) was 0.8 µg/mL and the M [4] was 0.38 µg/mL.
In the case of `CC(C)C[C@H](NC(=O)[C@H](CCCNC(=N)N)NC(=O)CNC(=O)CN)C(=O)N[C@H]1CSSC[C@@H](C(=O)N[C@H](C(=O)NCC(=O)N[C@@H](CCCNC(=N)N)C(=O)N[C@@H](CCCNC(=N)N)C(N)=O)C(C)C)NC(=O)[C@H](C(C)C)NC(=O)[C@@H]2CSSC[C@H](NC(=O)[C@H](Cc3ccc(O)cc3)NC1=O)C(=O)N[C@@H](CCCNC(=N)N)C(=O)N[C@@H](CCCNC(=N)N)C(=O)N[C@@H](CCCNC(=N)N)C(=O)N[C@@H](Cc1ccccc1)C(=O)N2` [4:4 PG-1-NH] (H-GGRLCYCRRRFCVCVGRR-NH2; disulfide 5-14, 7-12; N-terminus assumed), the “MMC, S. aureus” value (S. aureus 502a [1]) is reported as 0.5 µg/mL, the “enhancement of staphylocidal activity by serum” value (S. aureus 502a [2]) is reported as roughly 40% and the “MMC, E. coli” value (E. coli ML35 [5]) is reported as 1.0 µg/mL. For the same compound, the ONPG hydrolysis (E. coli ML35 [3]) was 12.4 (A405/sec) · 10^−5, the “MMC, C. albicans” value (C. albicans 16820) was 1.5 µg/mL and the M [4] was 0.5 µg/mL.
With `CC[C@H](C)[C@@H]1NC(=O)[C@@H]2CSSC[C@H](NC(=O)[C@H](CCCNC(=N)N)NC(=O)[C@@H]3CSSC[C@H](NC1=O)C(=O)N[C@@H]([C@@H](C)O)C(=O)N[C@@H](CCCNC(=N)N)C(=O)NCC(=O)N[C@@H](Cc1ccccc1)C(=O)N3)C(=O)N[C@@H](CC(C)C)C(=O)N[C@H]1CSSC[C@H](NC(=O)[C@H](C(C)C)NC(=O)CNC(=O)[C@H](CCCNC(=N)N)NC(=O)[C@H](CCCNC(=N)N)NC1=O)C(=O)N[C@@H](CCCNC(=N)N)C(=O)N2` [RTD-1] (cyclo(GFCRCLCRRGVCRCICTR); disulfide 3-16, 5-14, 7-12) the “MMC, S. aureus” value (S. aureus 502a [1]) was 1.0 µg/mL, the ENA-78 fold increase (white blood cells; [6]) was 10 fold and the GCSF fold increase (white blood cells; [6]) was 1 fold. For the same compound, the GM-CSF fold increase (white blood cells; [6]) was 1 fold, the GRO fold increase (white blood cells; [6]) was 19 fold and the IFN-γ fold increase (white blood cells; [6]) was 60 fold. For the same compound, the IL-1β fold increase (white blood cells; [6]) was 118 fold, the IL-2 fold increase (white blood cells; [6]) was 1 fold and the IL-5 fold increase (white blood cells; [6]) was 118 fold. The IL-6 fold increase (white blood cells; [6]) was 2 fold, the IL-7 fold increase (white blood cells; [6]) was 1 fold and the IL-10 fold increase (white blood cells; [6]) was 2 fold. For the same compound, the MCP-2 fold increase (white blood cells; [6]) was 4 fold, the MCSF fold increase (white blood cells; [6]) was 1 fold and the MDC fold increase (white blood cells; [6]) was 4 fold. It also gave an MIP-1-δ fold increase (white blood cells; [6]) of 1 fold, an RANTES fold increase (white blood cells; [6]) of 237 fold and an SCF fold increase (white blood cells; [6]) of 1 fold. For the same compound, the SDF-1 fold increase (white blood cells; [6]) was 178 fold, the TARC fold increase (white blood cells; [6]) was 60 fold and the TGF-β1 fold increase (white blood cells; [6]) was 1 fold. For the same compound, the TNF-α fold increase (white blood cells; [6]) was 1 fold, the ENA-78 fold increase (white blood cells; stimulus alone, 100 ng/ml) was 1 fold and the GCSF fold increase (white blood cells; stimulus alone, 100 ng/ml) was 1 fold. The GM-CSF fold increase (white blood cells; stimulus alone, 100 ng/ml) was 1 fold, the GRO fold increase (white blood cells; stimulus alone, 100 ng/ml) was 4 fold and the IFN-γ fold increase (white blood cells; stimulus alone, 100 ng/ml) was 1 fold. The IL-1β fold increase (white blood cells; stimulus alone, 100 ng/ml) was 178 fold, the IL-2 fold increase (white blood cells; stimulus alone, 100 ng/ml) was 1 fold and the IL-5 fold increase (white blood cells; stimulus alone, 100 ng/ml) was 60 fold. The IL-6 fold increase (white blood cells; stimulus alone, 100 ng/ml) was 2 fold, the IL-7 fold increase (white blood cells; stimulus alone, 100 ng/ml) was 1 fold and the IL-10 fold increase (white blood cells; stimulus alone, 100 ng/ml) was 1 fold. For the same compound, the MCP-2 fold increase (white blood cells; stimulus alone, 100 ng/ml) was 2 fold, the MCSF fold increase (white blood cells; stimulus alone, 100 ng/ml) was 60 fold and the MDC fold increase (white blood cells; stimulus alone, 100 ng/ml) was 2 fold. It also gave an MIP-1-δ fold increase (white blood cells; stimulus alone, 100 ng/ml) of 1 fold, an RANTES fold increase (white blood cells; stimulus alone, 100 ng/ml) of 1 fold and an SCF fold increase (white blood cells; stimulus alone, 100 ng/ml) of 1 fold. For the same compound, the SDF-1 fold increase (white blood cells; stimulus alone, 100 ng/ml) was 1 fold, the TARC fold increase (white blood cells; stimulus alone, 100 ng/ml) was 1 fold and the TGF-β1 fold increase (white blood cells; stimulus alone, 100 ng/ml) was 1 fold. The TNF-α fold increase (white blood cells; stimulus alone, 100 ng/ml) was 1 fold, the “MMC, E. coli” value (E. coli ML35 [5]) was 2.0 µg/mL and the H (human erythrocytes) was 5.5 µg/mL. For the same compound, the ONPG hydrolysis (E. coli ML35 [3]) was 9.0 (A405/sec) · 10^−5, the “MMC, C. albicans” value (C. albicans 16820) was 1.0 µg/mL and the M [4] was 1 µg/mL.
